Results published in ChEMBL document CHEMBL1201862, “PubChem BioAssay data set” (2004).
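Each compound was tested at five concentrations against cells in 96-well plates for 48 hours. GI50: concentration for 50% inhibition of growth.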 The source made the active and inactive calls. Cut-off read from the data, not from the text of the source: active = GI50 up to about 1.1 µM and inactive = higher.

What was measured:
Assay in all cases: DTP human tumour cell line panel, 48 h
HCT-116 = test system: HCT-116
HL-60 = test system: HL-60
K562 = test system: K562
KM12 = test system: KM12
LOX IMVI = test system: LOX IMVI
MDA-MB-435 = test system: MDA-MB-435
MDA-N = test system: MDA-N
MOLT-4 = test system: MOLT-4
Malme-3M = test system: Malme-3M
NCI-H226 = test system: NCI-H226
NCI-H460 = test system: NCI-H460
NCI-H522 = test system: NCI-H522
OVCAR-3 = test system: OVCAR-3
OVCAR-5 = test system: OVCAR-5
SK-MEL-2 = test system: SK-MEL-2
SK-OV-3 = test system: SK-OV-3
SW-620 = test system: SW-620
T47D = test system: T47D
UACC-257 = test system: UACC-257
UO-31 = test system: UO-31

SMILES	GI50 (HCT-116)	GI50 (HL-60)	GI50 (K562)	GI50 (KM12)	GI50 (LOX IMVI)	GI50 (MDA-MB-435)	GI50 (MDA-N)	GI50 (MOLT-4)	GI50 (Malme-3M)	GI50 (NCI-H226)	GI50 (NCI-H460)	GI50 (NCI-H522)	GI50 (OVCAR-3)	GI50 (OVCAR-5)	GI50 (SK-MEL-2)	GI50 (SK-OV-3)	GI50 (SW-620)	GI50 (T47D)	GI50 (UACC-257)	GI50 (UO-31)
CC(C)(CO[C@H]1C[C@H]2CC[C@@]1(C)C2(C)C)[N+](=O)[O-]	15.3 µM (inactive)	0.0363 µM (active)	13.9 µM (inactive)	17.4 µM (inactive)	18.1 µM (inactive)	18.8 µM (inactive)	15.6 µM (inactive)	18.1 µM (inactive)	20.3 µM (inactive)	16.1 µM (inactive)	19.6 µM (inactive)	20.4 µM (inactive)	22.8 µM (inactive)	16.8 µM (inactive)	16.6 µM (inactive)	29.1 µM (inactive)	22.2 µM (inactive)	19.6 µM (inactive)	18.5 µM (inactive)	12.5 µM (inactive)
COc1ccc(CSC2=C(C#N)C(=O)NC3(CCCCC3)S2)cc1	44.5 µM (inactive)	3.63 µM (inactive)	> 50 µM (inactive)		30.1 µM (inactive)	19 µM (inactive)	22.4 µM (inactive)	36.9 µM (inactive)	54.5 µM (inactive)	> 100 µM (inactive)	69 µM (inactive)	24.2 µM (inactive)	35.2 µM (inactive)	> 100 µM (inactive)	38.6 µM (inactive)	44.7 µM (inactive)	32.6 µM (inactive)	27.5 µM (inactive)	> 81.7 µM (inactive)	96.4 µM (inactive)
COc1ccc(CCN2C(=O)C=CC2=O)cc1OC	3.53 µM (inactive)	8.39 µM (inactive)	2.59 µM (inactive)	19.6 µM (inactive)	18.5 µM (inactive)	17.5 µM (inactive)	17.8 µM (inactive)	2.43 µM (inactive)	13.8 µM (inactive)	5.62 µM (inactive)	21.5 µM (inactive)	1.52 µM (inactive)	18 µM (inactive)	18.4 µM (inactive)	5.2 µM (inactive)	18.8 µM (inactive)	2.28 µM (inactive)	7.16 µM (inactive)	16.8 µM (inactive)	1.63 µM (inactive)
O/N=C1\Nc2ccccc2OCc2cc(Br)c(Br)cc2COc2ccccc2N\C1=N/O	6.12 µM (inactive)	5.18 µM (inactive)	4.85 µM (inactive)	8.51 µM (inactive)	10.1 µM (inactive)	14.8 µM (inactive)	14.3 µM (inactive)	3.63 µM (inactive)	16.4 µM (inactive)	21.5 µM (inactive)	13.2 µM (inactive)	6.43 µM (inactive)	7.21 µM (inactive)	17.9 µM (inactive)	19.5 µM (inactive)	17.2 µM (inactive)	11.8 µM (inactive)	10.9 µM (inactive)	21.8 µM (inactive)	19.1 µM (inactive)
COC(=O)C1=C(OC(=O)/C=C/c2ccc(Cl)cc2)C(C(=O)OC)[C@]2(O)[C@@H](C(=O)OC)[C@H]1C[C@@H](c1ccccc1)[C@@H]2C(=O)OC (some centres not stated)	3.53 µM (inactive)	3.81 µM (inactive)	4.54 µM (inactive)	4.89 µM (inactive)	7.19 µM (inactive)	3.82 µM (inactive)	3.58 µM (inactive)	3.76 µM (inactive)	4.94 µM (inactive)	4.12 µM (inactive)	4.15 µM (inactive)	2.34 µM (inactive)	7.5 µM (inactive)	17.7 µM (inactive)	6.27 µM (inactive)	29.9 µM (inactive)	3.97 µM (inactive)	5.87 µM (inactive)	26.2 µM (inactive)	7.08 µM (inactive)
Cc1nc(Nc2ccc(Cl)cc2Cl)sc1C(=O)Nc1ccccc1	35.1 µM (inactive)	> 10 µM (inactive)	24 µM (inactive)	35.8 µM (inactive)	23.4 µM (inactive)	42.2 µM (inactive)	81.3 µM (inactive)	10.9 µM (inactive)	> 100 µM (inactive)	< 0.01 µM (active)	37.9 µM (inactive)	38.5 µM (inactive)	97.1 µM (inactive)	> 100 µM (inactive)	39.8 µM (inactive)	> 100 µM (inactive)	> 100 µM (inactive)	22.4 µM (inactive)	61.4 µM (inactive)	29.6 µM (inactive)
CCOC(=O)C1(C#N)C(C#N)(C#N)C1(C#N)C#N	> 100 µM (inactive)	> 100 µM (inactive)	> 100 µM (inactive)	> 100 µM (inactive)	> 100 µM (inactive)	> 100 µM (inactive)	> 100 µM (inactive)	> 100 µM (inactive)	> 100 µM (inactive)	> 100 µM (inactive)	> 100 µM (inactive)	> 100 µM (inactive)		> 100 µM (inactive)	> 100 µM (inactive)	> 100 µM (inactive)	> 100 µM (inactive)	> 100 µM (inactive)	> 100 µM (inactive)	> 100 µM (inactive)
Cc1ccc(/C(=C\C(=O)C(=O)NC23CC4CC(CC(C4)C2)C3)Sc2ccccc2)cc1		5.82 µM (inactive)	4.76 µM (inactive)	> 10 µM (inactive)	> 10 µM (inactive)	> 10 µM (inactive)	> 10 µM (inactive)	4.63 µM (inactive)	> 10 µM (inactive)	> 10 µM (inactive)	> 10 µM (inactive)	> 10 µM (inactive)	> 10 µM (inactive)	> 10 µM (inactive)	> 10 µM (inactive)	> 10 µM (inactive)	> 10 µM (inactive)	> 10 µM (inactive)	> 10 µM (inactive)	> 10 µM (inactive)
O=S1(=O)N=C(SCc2c[nH]c3ccccc23)N(c2ccccc2)c2ccncc21	> 100 µM (inactive)	> 100 µM (inactive)	> 100 µM (inactive)	> 100 µM (inactive)	35.4 µM (inactive)	> 100 µM (inactive)	> 100 µM (inactive)	46.7 µM (inactive)	> 100 µM (inactive)	97.7 µM (inactive)	> 100 µM (inactive)	37.5 µM (inactive)	> 100 µM (inactive)	94.2 µM (inactive)	> 100 µM (inactive)	> 100 µM (inactive)	> 100 µM (inactive)	21.3 µM (inactive)	> 100 µM (inactive)	18.5 µM (inactive)
COc1cccc2c(NNc3ccc(Cl)cc3)c3ccc([N+](=O)[O-])cc3nc12	7.28 µM (inactive)	5.92 µM (inactive)	11.7 µM (inactive)	18.7 µM (inactive)	11.3 µM (inactive)	29.7 µM (inactive)	36.4 µM (inactive)	1.92 µM (inactive)	10.3 µM (inactive)	13.9 µM (inactive)	4.92 µM (inactive)	6.07 µM (inactive)	12.5 µM (inactive)	22.9 µM (inactive)	13 µM (inactive)	15.1 µM (inactive)	13.8 µM (inactive)	5.43 µM (inactive)	19.2 µM (inactive)	5.33 µM (inactive)
